Measurements: patent US10246486B2, “Macrocyclic inhibitors of flaviviridae viruses” (Gilead Sciences, Inc., priority 2012, dated 2019)

The compounds below were run against cyclophilin A (Homo sapiens, UniProt P62937) (assay: biochemical). Details: not given.
Chain of cyclophilin A (P62937 whole entry, species assumed): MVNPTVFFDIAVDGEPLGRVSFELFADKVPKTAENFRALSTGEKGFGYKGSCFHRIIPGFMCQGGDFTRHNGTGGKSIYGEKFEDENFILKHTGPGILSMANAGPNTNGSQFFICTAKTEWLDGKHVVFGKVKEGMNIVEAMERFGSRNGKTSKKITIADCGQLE
In the case of `CC(C)[C@@H]1NC(=O)[C@@H]([C@H](C)O)/C=C/c2ccc3ccc(nc3c2)[C@@H](C)OC(=O)[C@@H]2CCCN(N2)C(=O)[C@H](C)NC1=O` [Example 31], the IC50 is reported as less than 0.1 µM. With `CC(C)[C@@H]1NC(=O)/C=C\c2cc3cc(ccc3cn2)[C@@H](C)NC(=O)[C@@H]2CCCN(N2)C(=O)[C@H](C)NC1=O` [Example 12] the IC50 was 1 to 10 µM.

Each compound was assayed on HCV replicon 1a (human hepatoma Huh-7 cell line harboring a HCV replicon) (assay: microbe, parasite or virus in culture). Details: not given.
Type: cell-based
In the case of `CC(C)[C@@H]1NC(=O)[C@H](C)/C=C/c2ccc3ccc(nc3c2)[C@@H](C)OC(=O)[C@@H]2CCCN(N2)C(=O)[C@H](C)NC1=O` [Example 26], the “Replicon 1a % inhibition at 1 μm” value is reported as 99%. In the case of `CC(C)[C@@H]1NC(=O)C(C)(C)/C=C/c2ccc3ccc(nc3c2)[C@@H](C(F)(F)F)NC(=O)[C@@H]2CCCN(N2)C(=O)[C@H](C)NC1=O` [Example 13], the “Replicon 1a % inhibition at 1 μm” value is reported as 87%. With `CO[C@@H]1/C=C/COc2cccc(c2)[C@@H](C(C)C)NC(=O)[C@@H]2CCCN(N2)C(=O)[C@H](C)NC(=O)[C@H](C(C)C)NC(=O)[C@@H]1C` [Example 37, (E)-(2R,5S,11S,14S,17R,18R)-2,14-Diisopropyl-18-methoxy-11,17-di methyl-22-oxa-3,9,12,15,28-pentaaza-tricyclo[21.3.1.1*5,9]octacosa-1(27),19,23,25-tetraene-4,10,13,16-tetraone] the “Replicon 1a % inhibition at 1 μm” value was 76%. With `C[C@@H]1NC(=O)[C@H](CCn2cc(CO)nn2)NC(=O)C(C)(C)/C=C/c2cc3cc(ccc3cn2)[C@@H](C)OC(=O)[C@@H]2CCCN(N2)C1=O` [Compound 72] the “Replicon 1a % inhibition at 1 μm” value was 0%.

Same assay, conditions: Hepatitis C virus, Huh-7, 72 h, read-out: Replicon 1a % inhibition at 1 μm
`CC(C)[C@@H]1NC(=O)C(C)(C)c2cccc(c2)-c2cc3cc(ccc3cn2)[C@@H](C)OC(=O)[C@@H]2CCCN(N2)C(=O)[C@H](C)NC1=O` [Compound 67] gave an inhibition at 1 µM of 97%. `CC(C)[C@@H]1NC(=O)[C@H](C)C/C=C/COc2ccc(F)c(c2)[C@@H](C)OC(=O)[C@@H]2CCCN(N2)C(=O)[C@H](C)NC1=O` [Example 35] showed an inhibition at 1 µM of 94%. For `CO[C@@H]1/C=C/c2cc3cc(ccc3cn2)[C@@H](C)OC(=O)[C@@]2(C)CCCN(N2)C(=O)[C@H](C)NC(=O)[C@H](C(C)C)NC(=O)[C@@H]1C` [Example 33], the inhibition at 1 µM was 14%.
